Experimental data reported in US9603364B2 (Dow AgroSciences LLC, priority 2013, dated 2017).

Tests used:
Assay in all cases: General post-emergent herbicidal activity, foliar application
Type in all cases: in vivo
Oryza sativa L. (rice) = details: Oryza sativa, 336 h, scored after 14 days, read-out: % Visual Growth Reduction ORYSA; for plant injury at 70 g/ha: 70 g ai/ha; for plant injury at 140 g/ha: 140 g ai/ha; for plant injury at 280 g/ha: 280 g ai/ha
Summary of the method: (§1)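 Injury rated visually 14 days after treatment on a 0 (none) to 100% (complete kill) scale against untreated plants; greenhouse-grown, sub-irrigated to avoid wash-off. Foliar spray in aqueous acetone/DMSO with isopropanol, crop oil concentrate and Triton X-155, at a highest rate and 2-fold serial dilutions down to 1/16×.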

Zea mays L. (corn) = details: 336 h, scored after 14 days, read-out: % Visual Growth Reduction ZEAMX; for plant injury at 70 g/ha: 70 g ai/ha; for plant injury at 140 g/ha: 140 g ai/ha; for plant injury at 280 g/ha: 280 g ai/ha
Summary of the method: as §1

[1] = system: Chenopodium album L. (lambsquarters, common); details: for pest or weed control at 70 g/ha: 70 g ai/ha; for pest or weed control at 140 g/ha: 140 g ai/ha; for pest or weed control at 280 g/ha: 280 g ai/ha; for GR80 Value CHEAL: calculated by probit analysis, dose for 80% visual injury, may be extrapolated
Summary of the method: (§2)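 Compounds in acetone/DMSO (97:3) were diluted into aqueous spray containing isopropyl alcohol, Atplus 411F crop oil and Triton X-155, then applied post-emergence to foliage at a top rate plus 1/2× to 1/16× serial dilutions. Injury was scored visually (0–100%) after 14 days in a sub-irrigated greenhouse versus untreated plants. GR20/GR50/GR80 were derived by probit analysis, with some GR80 values extrapolated from curve slope.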

[2] = system: Euphorbia heterophylla L. (poinsettia, wild); details: for pest or weed control at 70 g/ha: 70 g ai/ha; for pest or weed control at 140 g/ha: 140 g ai/ha; for pest or weed control at 280 g/ha: 280 g ai/ha; for GR80 Value EPHHL: calculated by probit analysis, dose for 80% visual injury, may be extrapolated
Summary of the method: as §2

[3] = system: Helianthus annuus L. (sunflower, common); details: for pest or weed control at 70 g/ha: 70 g ai/ha; for pest or weed control at 140 g/ha: 140 g ai/ha; for pest or weed control at 280 g/ha: 280 g ai/ha; for GR80 Value HELAN: calculated by probit analysis, dose for 80% visual injury, may be extrapolated
Summary of the method: as §2

[4] = system: Echinochloa crus-galli (L.) Beauv. (barnyardgrass); details: for pest or weed control at 70 g/ha: 70 g ai/ha; for pest or weed control at 140 g/ha: 140 g ai/ha; for pest or weed control at 280 g/ha: 280 g ai/ha; for GR80 Value ECHCG: calculated by probit analysis, dose for 80% visual injury, may be extrapolated
Summary of the method: as §2

[5] = system: Amaranthus retroflexus L. (pigweed, redroot); details: for pest or weed control at 70 g/ha: 70 g ai/ha; for pest or weed control at 140 g/ha: 140 g ai/ha; for pest or weed control at 280 g/ha: 280 g ai/ha; for GR80 Value AMARE: calculated by probit analysis, dose for 80% visual injury, may be extrapolated
Summary of the method: as §2

[6] = system: Viola tricolor L. (pansy); details: for pest or weed control at 70 g/ha: 70 g ai/ha; for pest or weed control at 140 g/ha: 140 g ai/ha; for pest or weed control at 280 g/ha: 280 g ai/ha; for GR80 Value VIOTR: calculated by probit analysis, dose for 80% visual injury, may be extrapolated
Summary of the method: as §2

[7] = Chenopodium album, 336 h, foliar post-emergent, scored after 14 days, read-out: % Visual Growth Reduction CHEAL
[8] = Euphorbia heterophylla, 336 h, foliar post-emergent, scored after 14 days, read-out: % Visual Growth Reduction EPHHL
[9] = Helianthus annuus, 336 h, foliar post-emergent, scored after 14 days, read-out: % Visual Growth Reduction HELAN
[10] = Echinochloa crus-galli, 336 h, foliar post-emergent, scored after 14 days, read-out: % Visual Growth Reduction ECHCG
[11] = Amaranthus retroflexus, 336 h, foliar post-emergent, scored after 14 days, read-out: % Visual Growth Reduction AMARE
[12] = Viola tricolor, 336 h, foliar post-emergent, scored after 14 days, read-out: % Visual Growth Reduction VIOTR

| SMILES | plant injury at 140 g/ha (Oryza sativa L. (rice)) | plant injury at 280 g/ha (Oryza sativa L. (rice)) | plant injury at 140 g/ha (Zea mays L. (corn)) | plant injury at 280 g/ha (Zea mays L. (corn)) | pest or weed control at 140 g/ha [1, 7] | pest or weed control at 280 g/ha [1, 7] | GR80 Value CHEAL [1] | pest or weed control at 140 g/ha [2, 8] | pest or weed control at 280 g/ha [2, 8] | GR80 Value EPHHL [2] | pest or weed control at 140 g/ha [3, 9] | pest or weed control at 280 g/ha [3, 9] | GR80 Value HELAN [3] | pest or weed control at 140 g/ha [4, 10] | pest or weed control at 280 g/ha [4, 10] | GR80 Value ECHCG [4] | pest or weed control at 140 g/ha [5, 11] | pest or weed control at 280 g/ha [5, 11] | GR80 Value AMARE [5] | pest or weed control at 280 g/ha [6, 12] | further results |
| --- | --- | --- | --- | --- | --- | --- | --- | --- | --- | --- | --- | --- | --- | --- | --- | --- | --- | --- | --- | --- | --- |
| CC(F)c1nc(C(=O)O)c(Cl)c(N)c1F (centres unmarked) [Compound F30, 4-amino-3-chloro-5-fluoro-6-(1-fluoroethyl)picolinic acid] | 0% | 0% | 100% | 100% | 95% | 100% | <17.5 g ai/ha | 100% | 100% | 84.9 g ai/ha | 90% | 90% | 59.3 g ai/ha | 65% | 80% | 239 g ai/ha | 100% | 100% | 40.6 g ai/ha | 50% | plant injury at 70 g/ha (Oryza sativa L. (rice)): 0%; plant injury at 70 g/ha (Zea mays L. (corn)): 100%; pest or weed control at 70 g/ha [1, 7]: 95%; pest or weed control at 70 g/ha [2, 8]: 70%; pest or weed control at 70 g/ha [3, 9]: 80%; pest or weed control at 70 g/ha [4, 10]: 0%; pest or weed control at 70 g/ha [5, 11]: 100%; pest or weed control at 70 g/ha [6, 12]: 10%; pest or weed control at 140 g/ha [6, 12]: 25%; GR80 Value VIOTR [6]: >280 g ai/ha |
| COC(=O)c1nc(CCl)c(F)c(N)c1Cl [Compound F21, Methyl 4-amino-3-chloro-6-(chloromethyl)-5-fluoropicolinate] |  | 0% |  | 0% |  | 0% |  |  | 0% |  |  | 0% |  |  | 0% |  |  | 0% |  | 0% |  |
| Nc1c(Cl)c(CF)nc(C(=O)O)c1Cl [Compound F25, 4-Amino-3,5-dichloro-6-(fluoromethyl)picolinic acid] | 0% | 0% | 0% | 0% | 80% | 80% | 176 g ai/ha | 100% | 100% | <17.5 g ai/ha | 80% | 90% | 146 g ai/ha | 0% | 50% | 373 g ai/ha | 80% | 85% | 180 g ai/ha | 0% | pest or weed control at 140 g/ha [6, 12]: 0%; GR80 Value VIOTR [6]: >280 g ai/ha |
| COC(=O)c1nc(C(F)F)cc(N)c1Cl [Compound F12, methyl 4-amino-3-chloro-6-(difluoromethyl)picolinate] | 0% | 8% | 60% | 70% | 100% | 100% | <17.5 g ai/ha | 100% | 100% | 29.2 g ai/ha | 100% | 100% | 23.1 g ai/ha | 55% | 80% | 249 g ai/ha | 100% | 100% | 26.8 g ai/ha | 100% | plant injury at 35 g/ha (Oryza sativa L. (rice); 35 g ai/ha): 0%; plant injury at 70 g/ha (Oryza sativa L. (rice)): 0%; plant injury at 35 g/ha (Zea mays L. (corn); 35 g ai/ha): 15%; plant injury at 70 g/ha (Zea mays L. (corn)): 30%; pest or weed control at 35 g/ha ([1]; Chenopodium album, 336 h, 35 g ai/ha, foliar post-emergent, scored after 14 days, read-out: % Visual Growth Reduction CHEAL): 90%; pest or weed control at 70 g/ha [1, 7]: 100%; pest or weed control at 35 g/ha ([2]; Euphorbia heterophylla, 336 h, 35 g ai/ha, foliar post-emergent, scored after 14 days, read-out: % Visual Growth Reduction EPHHL): 90%; pest or weed control at 70 g/ha [2, 8]: 100%; pest or weed control at 35 g/ha ([3]; Helianthus annuus, 336 h, 35 g ai/ha, foliar post-emergent, scored after 14 days, read-out: % Visual Growth Reduction HELAN): 100%; pest or weed control at 70 g/ha [3, 9]: 100%; pest or weed control at 35 g/ha ([4]; Echinochloa crus-galli, 336 h, 35 g ai/ha, foliar post-emergent, scored after 14 days, read-out: % Visual Growth Reduction ECHCG): 0%; pest or weed control at 70 g/ha [4, 10]: 0%; pest or weed control at 35 g/ha ([5]; Amaranthus retroflexus, 336 h, 35 g ai/ha, foliar post-emergent, scored after 14 days, read-out: % Visual Growth Reduction AMARE): 80%; pest or weed control at 70 g/ha [5, 11]: 100%; pest or weed control at 35 g/ha ([6]; Viola tricolor, 336 h, 35 g ai/ha, foliar post-emergent, scored after 14 days, read-out: % Visual Growth Reduction VIOTR): 90%; pest or weed control at 70 g/ha [6, 12]: 100%; pest or weed control at 140 g/ha [6, 12]: 100%; GR80 Value VIOTR [6]: 29.2 g ai/ha |
